For 19 compounds, IC50 results are on record in patent publication US9199988B2, “Dihydroquinazolinone analogues” (Boehringer Ingelheim International GmbH, priority 2013, dated 2015).

This assay deals with T1, first (BRD4-BD1) or the second (BRD4-BD2) bromodomain of BRD4 (Homo sapiens, UniProt O60885).
T1 construct: fused on or other part: GST tag (N-terminal fusion, used for capture on the glutathione acceptor beads)
Description: BRD4-H4 tetraacetylated peptide inhibition AlphaScreen. Type of assay: binding. As to conditions: inhibition of interaction of GST-BRD4 bromodomain with biotinylated tetraacetylated histone H4 peptide; table does not say whether BD1 or BD2. The method, then: BRD4-H4 tetraacetylated peptide inhibition AlphaScreen
Compounds are diluted in serial dilution 1:5 in assay buffer from 10 mM stock in DMSO (100 μM start concentration) in white OptiPlate-384 (PerkinElmer). A mix consisting of 15 nM GST-BRD4-BD1 protein (aa 44-168) or 150 nM GST-BRD4-BD2 (aa 333-460) and 15 nM biotinylated Acetyl-Histone H4 (LysS, 8, 12, 16) peptide is prepared in assay buffer (50 mM HEPES pH=7.4; 25 mM NaCl; 0.05% Tween 20; 0.1% bovine serum albumin (BSA); 10 mM dithiothreitol (DTT)). 6 μl of the mix is added to the compound dilutions. Subsequently, 6 μl of premixed AlphaLISA Glutathione Acceptor Beads and AlphaScreen Streptavidin Donor Beads from PerkinElmer (in assay buffer at a concentration of 10 μg/ml each) are added and the samples are incubated for 30 min at RT in the dark (shaking 300 rpm). Afterwards, the signal is measured in a PerkinElmer Envision HTS Multilabel Reader using the AlphaScreen protocol from PerkinElmer. Each plate contains negative controls where biotinylated Acetyl-Histone H4 peptide and GST-BRD4-BD1 or GST-BRD4-BD2 are left out and replaced by assay buffer. Negative control values are entered as low basis value when using the software GraphPad Prism for calculations. Furthermore, a positive control (probe molecule JQ1+ with protein/peptide mix) is pipetted. Determination of IC50 values are carried out using GraphPad Prism 3.03 software (or updates thereof).
On the technique in general: Alpha assays give light when donor and acceptor beads are brought close together.

For orientation: IC50 means the concentration that inhibits the measured activity by half. Lower therefore signals greater potency in that assay.

`Cc1noc(C)c1-c1ccc2c(c1)C(c1ccccc1)N(C)C(=O)N2` (stereo not shown) [Example 1, 6-(3,5-Dimethyl-isoxazol-4-yl)-3-methyl-4-phenyl-3,4-dihydro-1H-quinazolin-2-one] had an IC50 of 44 nM.

Regarding `Cc1noc(C)c1-c1ccc2c(c1)[C@H](c1ccccc1)N(C)C(=O)N2` [Example 2, (S) 6-(3,5-Dimethyl-isoxazol-4-yl)-3-methyl-4-phenyl-3,4-dihydro-1H-quinazolin-2-one], the IC50 turned out to be 27 nM.

For `Cc1noc(C)c1-c1ccc2c(c1)C(c1ccccc1)N(C)C(=O)N2C` (stereo not shown) [Example 3, 6-(3,5-Dimethyl-isoxazol-4-yl)-1,3-dimethyl-4-phenyl-3,4-dihydro-1H-quinazolin-2-one], the IC50 turned out to be 66 nM.

In turn, `Cc1noc(C)c1-c1ccc2c(c1)C(c1ccccc1)N(CC1CCN(C)CC1)C(=O)N2` (stereo not shown) [Example 4, 6-(3,5-Dimethyl-isoxazol-4-yl)-3-(1-methyl-piperidin-4-ylmethyl)-4-phenyl-3,4-dihydro-1H-quinazolin-2-one] returned an IC50 of 31 nM.

`Cc1noc(C)c1-c1ccc2c(c1)C(c1ccccc1)N(CC1CCOCC1)C(=O)N2` (stereo not shown) [Example 5, 6-(3,5-Dimethylisoxazol-4-yl)-4-phenyl-3-(tetrahydropyran-4-ylmethyl)-1,4-dihydroquinazolin-2-one]: the IC50 worked out at 38 nM.

Regarding `Cc1noc(C)c1-c1ccc2c(c1)C(c1ccccc1)N(Cc1ccccc1)C(=O)N2` (stereo not shown) [Example 6, 3-Benzyl-6-(3,5-dimethylisoxazol-4-yl)-4-phenyl-1,4-dihydroquinazolin-2-one], the IC50 was determined as 225 nM.

Take `Cc1noc(C)c1-c1ccc2c(c1)C(c1ccc(Cl)cc1)N(C)C(=O)N2` (stereo not shown) [Example 7, 4-(4-Chloro-phenyl)-6-(3,5-dimethyl-isoxazol-4-yl)-3-methyl-3,4-dihydro-1H-quinazolin-2-one]: the IC50 was determined as 105 nM.

In turn, `Cc1noc(C)c1-c1ccc2c(c1)C(c1ccccc1)N(C)C(=O)O2` (stereo not shown) [Example 8, 6-(3,5-Dimethyl-isoxazol-4-yl)-3-methyl-4-phenyl-3,4-dihydro-benzo[e][1,3]oxazin-2-one] gave an IC50 of 75 nM.

The compound `Cc1noc(C)c1-c1ccc2c(c1)[C@H](c1ccccc1)N(C)C(=O)O2` [Example 9, (S) 6-(3,5-Dimethyl-isoxazol-4-yl)-3-methyl-4-phenyl-3,4-dihydro-benzo[e][1,3]oxazin-2-one] had an IC50 of 68 nM.

Turning to `Cc1noc(C)c1-c1ccc2c(c1)C(c1ccccc1)OC(=O)N2` (stereo not shown) [Example 10, 6-(3,5-Dimethyl-isoxazol-4-yl)-4-phenyl-1,4-dihydro-benzo[d][1,3]oxazin-2-one], the IC50 came out at 423 nM.

`COc1ccc(CN2C(=O)Oc3ccc(-c4c(C)noc4C)cc3C2c2ccccc2)cc1` (stereo not shown) [Example 12, 6-(3,5-Dimethyl-isoxazol-4-yl)-3-(4-methoxy-benzyl)-4-phenyl-3,4-dihydro-benzo[e][1,3]oxazin-2-one] registered an IC50 of 241 nM.

With `Cc1noc(C)c1-c1ccc2c(c1)C(c1ccccn1)N(C)C(=O)N2` (stereo not shown) [Example 13, 6-(3,5-Dimethyl-isoxazol-4-yl)-3-methyl-4-pyridin-2-yl-3,4-dihydro-1H-quinazolin-2-one], half-maximal inhibition (IC50) required 119 nM.

Turning to `Cc1noc(C)c1-c1cc2c(cn1)NC(=O)N(C)C2c1ccccc1` (stereo not shown) [Example 15, 6-(3,5-Dimethyl-isoxazol-4-yl)-3-methyl-4-phenyl-3,4-dihydro-1H-pyrido[3,4-d]pyrimidin-2-one], the IC50 is 837 nM.

Compound `Cc1noc(C)c1-c1cc2c(cn1)NC(=O)N(C)[C@H]2c1ccccc1` [Example 16, (S) 6-(3,5-Dimethyl-isoxazol-4-yl)-3-methyl-4-phenyl-3,4-dihydro-1H-pyrido[3,4-d]pyrimidin-2-one] had an IC50 of 166 nM.

The compound `Cc1noc(C)c1-c1ccc2c(n1)C(c1ccccc1)N(C)C(=O)N2` (stereo not shown) [Example 17, 6-(3,5-Dimethyl-isoxazol-4-yl)-3-methyl-4-phenyl-3,4-dihydro-1H-pyrido[3,2-d]pyrimidin-2-one] returned an IC50 of 252 nM.

Compound `Cc1noc(C)c1-c1cnc2c(c1)C(c1ccccc1)N(C)C(=O)N2` (stereo not shown) [Example 18, 6-(3,5-Dimethyl-isoxazol-4-yl)-3-methyl-4-phenyl-3,4-dihydro-1H-pyrido[2,3-]pyrimidin-2-one] returned an IC50 of 76 nM.

The compound `Cc1noc(C)c1-c1ccc2c(c1)C(C)(c1ccccc1)N(C)C(=O)N2` (stereo not shown) [Example 19, 6-(3,5-Dimethyl-isoxazol-4-yl)-3,4-dimethyl-4-phenyl-3,4-dihydro-1H-quinazolin-2-one] gave an IC50 of 31 nM.

Turning to `COc1noc(C)c1-c1ccc2c(c1)C(c1ccccc1)N(C)C(=O)N2` (stereo not shown) [Example 20, 6-(3-Methoxy-5-methyl-isoxazol-4-yl)-3-methyl-4-phenyl-3,4-dihydro-1H-quinazolin-2-one], the IC50 stood at 213 nM.

In the case of `COc1c(-c2c(C)noc2C)ccc2c1C(c1ccccc1)N(C)C(=O)N2` (stereo not shown) [Example 21, 6-(3,5-Dimethyl-isoxazol-4-yl)-5-methoxy-3-methyl-4-phenyl-3,4-dihydro-1H-quinazolin-2-one], 825 nM corresponded to half-maximal inhibition (IC50).
